The numbers were not newly measured in article PMC7289749 (European Journal of Medicinal Chemistry, 2020), which cites them from elsewhere.

Like-named read-outs stand apart in the source and are kept apart here.

In data set [1] the test system is SARS-CoV-2. The settings on record: for EC50: read-out: EC50 (half-maximal effective concentration).
For another data set, the system named is Vero E6 cells. The following applies: read-out: CC50 (half-maximal cytotoxic concentration).
Data set [2] has as its system SARS-CoV-2.
Data set [3] concerns SARS-CoV-2. The following applies: read-out: inhibition on the replication of SARS-CoV-2 EC50; dose-dependent.
The next data set deals with SARS-CoV-2 Mpro. The following applies: read-out: SARS-CoV-2 Mpro inhibitory activity IC50.
The conditions of data set [4]: in animals, relative to CQ.
Data set [5] has as its system SARS-CoV-2. The settings on record: human liver cancer Huh-7 cells.

For the compound `NC(=O)c1ncn([C@@H]2O[C@H](CO)[C@@H](O)[C@H]2O)n1` [Ribavirin], the “selectivity index (SI)” value with SARS-CoV-2 [1] (CC50/EC50, Vero E6 cells) was above 3.65. Moreover, in the data set with Vero E6 cells, the CC50 was above 400 µM. For `CCN(CC)CCCC(C)Nc1ccnc2cc(Cl)ccc12` (stereo not shown) [Chloroquine], the “selectivity index (SI)” value in the data set on SARS-CoV-2 [1] (CC50/EC50, Vero E6 cells) is above 88.50. With `O=c1c2ccccc2[se]n1-c1ccccc1` [Ebselen], the “anti-viral activity in cell-based assays” value in the data set on SARS-CoV-2 [2] is given as “effective anti-viral activity”.

In the case of `O=c1cc(-c2ccccc2)oc2cc(O)c(O)c(O)c12` [Baicalein], the EC50 in the data set on SARS-CoV-2 [3] was 1.69 µM. Moreover, the IC50 – broadly, the concentration that gives 50% inhibition – in the data set on SARS-CoV-2 Mpro was […].

As to `CCN(CCO)CCCC(C)Nc1ccnc2cc(Cl)ccc12` (stereo not shown) [Hydroxychloroquine], in data set [4], the “less toxic than CQ” value is reported as “about 40%”. As for Remdesivir, in the data set on SARS-CoV-2 [5], the “inhibition of virus infection” value is listed as “inhibited virus infection”. For the compound `CC(=O)Oc1ccccc1C(=O)Nc1ncc([N+](=O)[O-])s1` [Nitazoxanide], the “selectivity index (SI)” value with SARS-CoV-2 [1] (CC50/EC50, Vero E6 cells) is recorded as above 16.76. In the data set with SARS-CoV-2 [1], the EC50 is 2.12 µM. For the same compound, the CC50 in the data set with Vero E6 cells was above 35.5 µM.

Regarding `NC(=O)c1nc(F)c[nH]c1=O` [Favipiravir], the CC50 with Vero E6 cells was above 400 µM.

In the case of `Nc1nc2c(ncn2CCC(CO)CO)c(=O)[nH]1` [Penciclovir], in the data set with SARS-CoV-2 [1] (CC50/EC50, Vero E6 cells), the “selectivity index (SI)” value was above 4.17. Further, the EC50 in the data set on SARS-CoV-2 [1] is 96 µM. In addition, the CC50 in the data set with Vero E6 cells was above 400 µM.

`N=C(N)Nc1ccc(C(=O)Oc2ccc3cc(C(=N)N)ccc3c2)cc1` [Nafamostat]: the “selectivity index (SI)” value with SARS-CoV-2 [1] is given as above 4.44.
